Results reported in patent US20220184000A1, “USE OF CANNABIDIOL IN THE TREATMENT OF DRAVET SYNDROME” (priority 2019, published 2022).

Columns and labels:
Assay type in all cases: in vivo
Scn1a^−/− mice = assay: Neonatal welfare scoring (TNW) in Scn1a^−/− mice, Study I
Protocol: 129S-Scn1a^tm1Keammjax heterozygote mice (Jackson Laboratory, USA) were maintained in and bred together to obtain Scn1a^−/− and wild type (WT) animals used for this Study (n=10 per group).
Following genotyping, animals were randomly divided into four groups WT vehicle-treated, WT CBD-treated, Scn1a^−/− vehicle-treated and Scn1a^−/− CBD-treated (n=10/group). They were injected subcutaneously twice daily with either CBD (100 mg/kg) or its vehicle (ethanol:Kolliphor®:0.9% saline=2:1:17) from P8 until P25 or death (whichever was earlier).
A twice daily welfare check was conducted throughout the entire duration of the study. Drug administration was conducted at 0800 h and followed by welfare checks. Conversely, afternoon welfare checks were conducted from 1600 h and followed by drug administration in order to provide the maximum possible time between doses. […]
The parameters used for the welfare assessment were: weight, natural activity (NA; 0-3), reflex/response to touch (RT; 0-3), orbital tightening (OT; 0-2), and body condition score (BC; 1-3). A total neonatal welfare score (TNW; range 0-8) was calculated by adding together scores from NA, RT, and […].
In Study I, the welfare parameters were analysed using SPSS 24 (IBM SPSS Statistics®, UK), whilst survival data were analysed using GraphPad Prism 6 software (GraphPad Software, Inc., USA). […] All the data are expressed as mean±SEM. […]

Scn1a^+/− mice [1] = assay: Sucrose preference test, depression-like behaviour, Study II; settings: CBD 100 mg/kg s.c. twice daily
Protocol: (§1) Here, Scn1a^+/− were randomly divided into two groups and subcutaneously injected with either CBD (100 mg/kg twice daily; n=12) or its vehicle (ethanol:Kolliphor®:0.9% saline=2:1:17; n=29) from P8 onwards until P52 or death (whichever was earlier).
The sucrose preference test was carried out to assess the depression-like behaviour (Serova, Mulhall, & Sabban, 2017). The animals were separately housed during this test. Here, 24 hours before the test, animals were trained to drink from two bottles each containing 2% sucrose. On the first day of test, the animals were provided with a pre-weighed bottle of 2% sucrose and another containing a pre-weighed volume of tap water. The positions of the bottles were swapped after 24 hours to avoid any side preferences. After 48 hours, both bottles were weighed, and sucrose preference was calculated by using the following formula: […]
(§2) In Study II, the data were analysed in GraphPad Prism 6 software. […] Data obtained from rotarod, gait, social interaction (active interaction), EPM, sucrose preference, RAM (RME) tests were normally distributed and the differences between the three groups were analysed by one-way ANOVA. […] Parametric data are presented in scattered dot plot in the figures and are expressed as mean±SEM. Non-parametric data are presented in box plot in the figures and are expressed as median, min to max, and interquartile range (IQR). […]

Scn1a^+/− mice [2] = assay: Gait test, Study II; settings: CBD 100 mg/kg s.c. twice daily
Protocol: as §1
Gait test was conducted to assess the cerebellar function of the animals (Patel & Hillard, 2001). In this test, the hind paws of each mouse were marked with a non-toxic ink and the mouse was allowed to walk on a white paper (50×10 cm) placed on the floor of a custom-made plexiglass tunnel (50×10×10 cm). To obtain the left and right stride length, the distance between two ipsilateral paw prints was measured, whereas stride width was calculated from the distance between a footprint and its contralateral stride length at right angle (Wecker et al., 2013). The initial and last footprints were not considered in measurements. All the animals were habituated to the test procedures and the apparatus for 2 days prior to the test. On the day of test, two trials were conducted for each animal to obtain mean stride length (left or right) and width for that animal.
In Study II, the data were analysed in GraphPad Prism 6 software. Survival curves of Scn1a^+/− vehicle-treated and Scn1a^+/− CBD-treated group were compared using a Mantel-Cox test. The percentage of animals from the Scn1a^+/− vehicle-treated and Scn1a^+/− CBD-treated groups that survived until the end of the study (P52) were compared by Fisher's exact test. Further, data obtained from the comorbidity assessment were checked for normality by D'Agostino & Pearson omnibus normality test. Data obtained from rotarod, gait, social interaction (active interaction), EPM, sucrose preference, RAM (RME) tests were normally distributed and the differences between the three groups were analysed by one-way ANOVA. […] Parametric data are presented in scattered dot plot in the figures and are expressed as mean±SEM. Non-parametric data are presented in box plot in the figures and are expressed as median, min to max, and interquartile range (IQR). […]

Scn1a^+/− mice [3] = assay: Accelerated rotarod test (motor function), Study II
Protocol: as §1
Fine motor control in animals were assessed by the accelerated rotarod and static beam tests. Animals were habituated to the stationary rotarod for 2 min a day for 2 days. In the accelerated rotarod test each mouse was placed individually on a linearly accelerating rod (4-40 rpm over 5 minutes; LE8500, Letica Scientific Instruments, UK) and average latency to fall from the rod (maximum 300 seconds) was calculated from 3 consecutive trials (2 min interval between trials).
as §2, with “software. Survival curves of Scn1a^+/− vehicle-treated and Scn1a^+/− CBD-treated group were compared using a Mantel-Cox test.” for “software.”

## C=C(C)[C@@H]1CCC(C)=C[C@H]1c1c(O)cc(CCCCC)cc1O [CBD, cannabidiol]
Scn1a^−/− mice; Scn1a^−/− CBD-treated group, CBD 100 mg/kg s.c. twice daily from P8 until P25 or death, n=10, mean±SEM, score range 0-8, vehicle group 3.66±0.04
  mean total neonatal welfare (TNW) score: 2.85±0.04
Scn1a^−/− mice; from P12 to P16, CBD 100 mg/kg s.c. twice daily, p<0.01, FIG. 1A
  welfare scores versus vehicle-treated Scn1a^−/− mice (post hoc): delayed the worsening of welfare scores
Scn1a^+/− mice [1]; p=0.36
  sucrose preference, Scn1a^+/− CBD-treated versus WT vehicle-treated: similar
Scn1a^+/− mice [1]; statement describes vehicle group relative to CBD group (n=10), p=0.01, FIG. 4D
  sucrose preference, Scn1a^+/− vehicle-treated compared to Scn1a^+/− CBD-treated: reduced preference for sucrose
Scn1a^+/− mice [2]; p=0.17, FIG. 3E
  stride width between the three groups: no significant change
Scn1a^+/− mice [2]; p=0.44, FIG. 3C
  left stride length between the three groups: no significant change
Scn1a^+/− mice [2]; p=0.44, FIG. 3D
  right stride length between the three groups: no significant change
Scn1a^+/− mice [3]; WT vehicle, Scn1a^+/− vehicle, Scn1a^+/− CBD (100 mg/kg s.c. twice daily), p=0.44, FIG. 3A
  time spent on rod, accelerating rotarod, between the groups: no significant difference
Scn1a^+/− mice [3]; conclusion from rotarod and static beam tests in Scn1a^+/− mice, chronic CBD 100 mg/kg s.c. twice daily
  effects on motor function (conclusion): no detrimental effects on motor function
